Results from US6046228A, “Anti-viral pharmaceutical compositions containing saturated 1,2-dithiaheterocyclic compounds and uses thereof” (priority 1999, dated 2000).
Read-outs that look alike come from different tables or passages of the source.

Experiments:
Format in all cases: cell-based
HIV-1RF = assay: XTT cytoprotection (cytopathicity) anti-HIV assay, CEM-SS cells
Method: (§1) Initial anti-HIV screening was performed with CEM-SS cells and HIV-1RFusing the XTT cytoprotection assay as previously described (Weislow et al., J. National Cancer Inst. 81: 577-586, (1989)). HIV-1 isolates included common laboratory stains (RF, IIIB and MN), as well as a panel of HIV-1 clinical isolates (Cushman et al., J. Med. Chem. 37: 3040-3050, (1994)). The pyridone-resistant HIV-1A17 isolate (Nunberg et al., J. Virol., 65: 4887-4892 (1991)) was obtained from Emilio Emini at Merck Sharpe and Dohme Laboratories. Phytohemagglutinin-stimulated human peripheral blood lymphocytes (PBLs) and fresh monocyte-macrophage (Mono/MF) cultures were prepared and utilized in antiviral assays as previously described (Rice et al., Proc. Nat'l. Academy Science, USA 90: 9721-9724, (1993)); (Cushman et al., J. Med. Chem. 37: 3040-3050, (1994)). EC50 values for these cultures indicate the drug concentration that provided a 50% reduction in viral p24 production. […] The compounds can be synthesized according to the teachings of Singh et al., Sulfur Letters 8: 107-114, (1988). […] MT-2, MT-4, U1, HeLa-CD4-LTR-β-gal and 174xCEM cells were obtained from the AIDS Research and Reference Program (National Institute of Allergy and Infectious Disease, National Institutes of Health, Bethesda, Md. USA), as were the HIV-2MS and the AZT-resistant HIV-1G910-6 isolates.
(§2) Racemate and enantiomers of the cis-1,1-dioxo[1,2]dithiane-4,5-diol were synthesized and evaluated for antiviral activity in the XTT assay as described hereinabove.

CEM-SS cells = assay: XTT assay, cytotoxicity (IC50), CEM-SS cells
Method: as §1, §2

HIV-1 N119(Nev^R) = assay: XTT cytopathicity assay, nevirapine-resistant N119; details: CEM-SS
Method: Initial anti-HIV screening was performed with CEM-SS cells and HIV-1RFusing the XTT cytoprotection assay as previously described (Weislow et al., J. National Cancer Inst. 81: 577-586, (1989)). HIV-1 isolates included common laboratory stains (RF, IIIB and MN), as well as a panel of HIV-1 clinical isolates (Cushman et al., J. Med. Chem. 37: 3040-3050, (1994)). The pyridone-resistant HIV-1A17 isolate (Nunberg et al., J. Virol., 65: 4887-4892 (1991)) was obtained from Emilio Emini at Merck Sharpe and Dohme Laboratories. Phytohemagglutinin-stimulated human peripheral blood lymphocytes (PBLs) and fresh monocyte-macrophage (Mono/MF) cultures were prepared and utilized in antiviral assays as previously described (Rice et al., Proc. Nat'l. Academy Science, USA 90: 9721-9724, (1993)); (Cushman et al., J. Med. Chem. 37: 3040-3050, (1994)). EC50 values for these cultures indicate the drug concentration that provided a 50% reduction in viral p24 production. […] The compounds can be synthesized according to the teachings of Singh et al., Sulfur Letters 8: 107-114, (1988). The 4,5-cis-dihydroxy(1,1-dioxy-1,2,-dithiohexane) compound (NSC 624151) has been abbreviated as 624151 for convenience. […]

## O=S1(=O)C[C@H](O)[C@H](O)CS1 (relative stereo) [NSC 624151, cis-1,1-dioxo[1,2]dithiane-4,5-diol]
HIV-1RF; Human immunodeficiency virus 1, CEM-SS, CEM-SS cells, HIV-1RF, read-out: XTT Assay EC50
  EC50: 6.6 µM
HIV-1RF; Human immunodeficiency virus 1, CEM-SS, CEM-SS, RF, Table 2, read-out: EC50
  EC50: 6.6 µM
HIV-1RF; Human immunodeficiency virus 1, CEM-SS, Table 5, read-out: EC50 Duplicates
  EC50: 9.53 µM
HIV-1RF; Human immunodeficiency virus 1, CEM-SS, Table 5, read-out: EC50 Mean
  EC50: 12.2 µM
HIV-1RF; Human immunodeficiency virus 1, CEM-SS, XTT cytopathicity assay, Table 4, read-out: Infection EC50 (Mean ± S.D., n = 6)
  EC50: 7.85 ± 5.5 µM
HIV-1RF; Table 5, read-out: EC50 Duplicates
  EC50: 14.9 µM
HIV-1RF; in words
  EC50 relative to enantiomer or racemate: the average of these EC50 s is equivalent to the EC50 for the racemic mixture
CEM-SS cells; Homo sapiens, CEM-SS, Table 5, cytotoxicity, read-out: IC50 Duplicates
  IC50: 116 µM
CEM-SS cells; Homo sapiens, CEM-SS, Table 5, cytotoxicity, read-out: IC50 Mean
  IC50: 122 µM
CEM-SS cells; Homo sapiens, CEM-SS, cytotoxicity, CEM-SS cells, read-out: XTT Assay IC50
  IC50: 184 µM
CEM-SS cells; Table 5, cytotoxicity, read-out: IC50 Duplicates
  IC50: 127 µM
HIV-1 N119(Nev^R)
  EC50: 18 µM
